Measurements as given in patent US3984470A, “Amidoxime derivatives and process for preparing the same” (priority 1974, dated 1976).

Tests used:
[1] = tested on: reserpine-induced hypothermia; experiment: Reserpine-induced hypothermia in the rat; assay type: in vivo, male rats CF1; details: reserpine 5 mg/kg i.p., mean to 6th hour vs controls
Method: (§1) The thymoanaleptic properties of the compounds of the invention were determined by means of reserpine-induced ptosis and hypothermia in the rat.
An intraperitoneal dose of 5 mg/kg of reserpine was administered to batches of 5 male rats CF1 weighing an average of 300 g. Thirty minutes later, the rectal temperature was determined and then a dose of the compound to be tested was given by oral route, except to the control animals. The rectal temperature of all the animals including the controls was taken every hour up to the 6th hour.
The difference between these two averages enabled an estimation to be made regarding the antagonistic effect of the compounds of the invention on the hypothermia induced by reserpine.

[2] = tested on: toxicity of yohimbine; experiment: Potentiation of the toxicity of yohimbine (test of QUINTON); assay type: in vivo, male mice; details: Mus musculus; 50 mg/kg oral; yohimbine hydrochloride 25 mg/kg i.p.; mortality after 24 hours
Method: Yohimbine is a substance which provokes an increase in the serotonine level in the brain or a decrease in norepinephrine according to the author.
For this purpose, the test of QUINTON was used which is described in Brit. J. Pharmacol. 21, 51 (1963). […] […] The percentage of mortality was noted after 24 hours.
Table III hereunder expresses the percentage of potentiation of the toxicity due to yohimbine in comparison with the controls.
The percentage in question was determined 24 hours after the administration of yohimbine.

[3] = tested on: stereotypies induced by amphetamine; experiment: Potentiation of the stereotypies induced by amphetamine; assay type: in vivo, rats
Method: It is commonly admitted that amphetamine induces stereotypies by stimulating the dopaminergic receptors and inhibiting the re-uptake of dopamine into the neuron.
The thymoanaleptics potentiate these stereotypies.
Thirty minutes later, a dose of 10 mg/kg of the compound to be tested was given by oral route. Note was taken of the intensity of the stereotypies every 30 minutes for 150 minutes in accordance with the following scale which indicates the behaviour of the animal.
0 : the rat is motionless and asleep
1 : the rat is motionless and awake
3 : the rat stands on its hind paws and sniffs the lid of its cage in a stereotyped manner.
4 : the rat licks the walls of its cage in a stereotyped manner
5 : the rat bites the bars of its cage or sniffs the shavings of its litter in a stereotyped manner
6 : the rat chews the shavings in a stereotyped manner
The average of the 5 results obtained for each batch was calculated and compared with the average obtained with the control animals.
The difference between these averages represents the mean increase of the steroetypies of the treated animals in comparison with the controls.

[4] = tested on: reserpine-induced ptosis; experiment: Reserpine-induced ptosis in the rat; assay type: in vivo, male rats of the CF1 strain; details: reserpine 5 mg/kg i.p., score scale 0-4, mean to 6th hour vs controls
Method: as §1
An intraperitoneal dose of 5 mg/kg of reserpine was administered to batches of 5 male rats of the CF1 strain weighing an average of 300 g.
Thirty minutes later a dose of the compound to be studied was given by oral route and the inhibitory effect of the reserpine was noted every hour up to the sixth hour. Ptosis was evaluated for each eye in accordance with the following scale:
4 : eyelids completely closed.
The difference between these two averages represents the average decrease of the ptosis in the treated animals as compared to the controls.

[5] = tested on: cholinergic effects provoked by tremorine; experiment: Cholinolytic properties: action with respect to tremorine; assay type: in vivo, male mice of the OF1 strain; details: tremorine 10 mg/kg, difference vs controls
Method: When injected into mice, tremorine and its metabolite, oxotremorine, produce central cholinergic effects, i.e. normal and provoked tremor as well as peripheral cholinergic effects i.e. weeping, sweating diarrhoea and salivation.
Male mice of the OF1 strain weighing 22 g, were divided into batches of 10. Each batch with the exception of the control animals, received, by oral route, a dose of the compound to be tested.
Thirty minutes later, 10 mg/kg of tremorine were administered to all the batches and thirty minutes after the injection of tremorine note was taken of the cholinergic effects on each animal in accordance with the following scale: […]

[6] = 10 mg/kg oral, amphetamine 10 mg/kg i.p., every 30 min for 150 min

## CCC(Oc1c(C)oc2ccccc12)C(N)=NO (stereo not shown) [Compound 39, 2-(2-Methyl-3-benzofuryloxy)-butyramidoxime]
[1]; 10 mg/kg oral
  Average inhibition of hypothermia (positive °C): 0.3 °C
[2]
  mortality at 50 mg/kg: 40%

## CC(C)(Oc1ccc2ccccc2c1)C(N)=NO [Compound 40, 2-(2-Naphthyloxy)-2-methyl-propionamidoxime]
[1]; 10 mg/kg oral
  Average inhibition of hypothermia (positive °C): 0.2 °C

## CC(C)c1oc2ccccc2c1OCC(N)=NO [Compound 36, 2-(2-Isopropyl-3-benzofuryloxy)-acetamidoxime]
[1]; 10 mg/kg oral
  Average inhibition of hypothermia (positive °C): 0.7 °C
[3]; [6]
  Average increase of the stereotypies: 1.8

## NC(COc1ccc2ccoc2c1)=NO [Compound 25, 2-(6-Benzofuryloxy)-acetamidoxime]
[4]; 10 mg/kg oral
  Average decrease of Ptosis: 0.2
[2]
  mortality at 50 mg/kg: 30%
[3]; [6]
  Average increase of the stereotypies: 4.4

## CCC(Oc1cccc2c(C)c(C)oc12)C(N)=NO (stereo not shown) [Compound 41, 2-(2,3-Dimethyl-7-benzofuryloxy)-butyramidoxime]
[1]; 100 mg/kg oral
  Average inhibition of hypothermia (positive °C): 1.1 °C

## NC(COc1cccc2ccoc12)=NO [Compound 7, 2-(7-Benzofuryloxy)-acetamidoxime]
[1]; 10 mg/kg oral
  Average inhibition of hypothermia (positive °C): 0.6 °C
[4]; 10 mg/kg oral
  Average decrease of Ptosis: 1.4
[2]
  mortality at 50 mg/kg: 60%
[3]; [6]
  Average increase of the stereotypies: 4.8

## CCC(Oc1c(C(C)C)oc2ccccc12)C(N)=NO (stereo not shown) [Compound 20, 2(2-Isopropyl-3-benzofuryloxy)-butyramidoxime]
[1]; 10 mg/kg oral
  Average inhibition of hypothermia (positive °C): 0.8 °C
[4]; 10 mg/kg oral
  Average decrease of Ptosis: 0.3

## CCc1oc2ccccc2c1OC(CC)C(N)=NO (stereo not shown) [Compound 10, 2-(2-Ethyl-3-benzofuryloxy)-butyramidoxime]
[4]; 10 mg/kg oral
  Average decrease of Ptosis: 0.8
[2]
  mortality at 50 mg/kg: 10%
[3]; [6]
  Average increase of the stereotypies: 5.6

## CC(Oc1c(C(C)C)oc2ccccc12)C(N)=NO (stereo not shown) [Compound 24, 2-(2-Isopropyl-3-benzofuryloxy)-propionamidoxime]
[1]; 10 mg/kg oral
  Average inhibition of hypothermia (positive °C): 0.8 °C
[4]; 10 mg/kg oral
  Average decrease of Ptosis: 0.2
[2]
  mortality at 50 mg/kg: 30%
[3]; [6]
  Average increase of the stereotypies: 3.8

## CC(Oc1ccc2occc2c1)C(N)=NO (stereo not shown) [Compound 29, 2-(5-Benzofuryloxy)-propionamidoxime]
[1]; 100 mg/kg oral
  Average inhibition of hypothermia (positive °C): 0.8 °C
[4]; 100 mg/kg oral
  Average decrease of Ptosis: 2.4
[3]; 20 mg/kg, same conditions (amphetamine 10 mg/kg i.p.)
  Average increase of the stereotypies: 5

## CCc1oc2ccccc2c1OC(C)C(N)=NO (stereo not shown) [Compound 17, 2-(2-Ethyl-3-benzofuryloxy)-propionamidoxime]
[5]; 25 mg/kg oral
  Central response tremor: Normal: -0.8
  Central response tremor: Provoked: 0
  Peripheral cholinergic response: Salivat.: 0
  Peripheral cholinergic response: Sweating: 0
  Peripheral cholinergic response: Weeping: 0
[4]; 10 mg/kg oral
  Average decrease of Ptosis: 0.4
[2]
  mortality at 50 mg/kg: 20%
[3]; [6]
  Average increase of the stereotypies: 1.2

## CC(C)(Oc1cccc2c1OCCO2)C(N)=NO [Compound 38, 2-[(1,4-Benzodioxanyl)-5-oxyl]-2-methyl-propionamidoxime]
[1]; 10 mg/kg oral
  Average inhibition of hypothermia (positive °C): 0.5 °C
[2]
  mortality at 50 mg/kg: 10%

## CC(C)(Oc1cccc2ccccc12)C(N)=NO [Compound 11, 2-(1-Naphtyloxy)-2-methyl-propionamidoxime]
[1]; 20 mg/kg oral
  Average inhibition of hypothermia (positive °C): 0.5 °C
[4]; 10 mg/kg oral
  Average decrease of Ptosis: 0.7

## CCC(Oc1ccc2ccoc2c1)C(N)=NO (stereo not shown) [Compound 31, 2-(6-Benzofuryloxy)-butyramidoxime]
[4]; 100 mg/kg oral
  Average decrease of Ptosis: 2.3

## Cc1cc2cc(OCCC(N)=NO)ccc2o1 [Compound 32, 3-(2-Methyl-5-benzofuryloxy)-propionamidoxime]
[4]; 100 mg/kg oral
  Average decrease of Ptosis: 2.3

## CC(C)c1oc2ccccc2c1OC(C)(C)C(N)=NO [Compound 35, 2-(2-Isopropyl-3-benzofuryloxy)-2-methyl-propionamidoxime]
[1]; 10 mg/kg oral
  Average inhibition of hypothermia (positive °C): 0.7 °C
[3]; [6]
  Average increase of the stereotypies: 3

## CCc1oc2ccccc2c1OCC(N)=NO [Compound 27, 2-(2-Ethyl-3-benzofuryloxy)-acetamidoxime]
[4]; 20 mg/kg oral
  Average decrease of Ptosis: 0.3
[2]
  mortality at 50 mg/kg: 20%

## Cc1oc2ccc(OCC(N)=NO)cc2c1C [Compound 15, 2-(2,3-Dimethyl-5-benzofuryloxy)-acetamidoxime]
[4]; 10 mg/kg oral
  Average decrease of Ptosis: 0.5
[2]
  mortality at 50 mg/kg: 10%
[3]; [6]
  Average increase of the stereotypies: 1

## Cc1oc2ccccc2c1OC(C)(C)C(N)=NO [Compound 22, 2-(2-Methyl-3-benzofuryloxy)-2-methyl-propionamidoxime]
[5]; 10 mg/kg oral
  Central response tremor: Normal: 0
  Central response tremor: Provoked: 0
  Peripheral cholinergic response: Salivat.: 0
  Peripheral cholinergic response: Sweating: 0
  Peripheral cholinergic response: Weeping: 0
[1]; 10 mg/kg oral
  Average inhibition of hypothermia (positive °C): 0.5 °C
[4]; 10 mg/kg oral
  Average decrease of Ptosis: 0.3
[3]; [6]
  Average increase of the stereotypies: 4.2

## CC(Oc1cccc2c1OCCO2)C(N)=NO (stereo not shown) [Compound 45, 2-[(1,4-Benzodioxanyl)-5-oxy]-propionamidoxime]
[2]
  mortality at 50 mg/kg: 10%
[3]; [6]
  Average increase of the stereotypies: 3

## Cc1oc2ccccc2c1OCCC(N)=NO [Compound 19, 3-(2-Methyl-3-benzofuryloxy)-propionamidoxime]
[4]; 10 mg/kg oral
  Average decrease of Ptosis: 0.3
[2]
  mortality at 50 mg/kg: 10%

## Cc1oc2ccccc2c1OC(C)C(N)=NO (stereo not shown) [Compound 16, 2-(2-Methyl-3-benzofuryloxy)-propionamidoxime]
[4]; 10 mg/kg oral
  Average decrease of Ptosis: 0.5

## CCC(Oc1cccc2occc12)C(N)=NO (stereo not shown) [Compound 43, 2-(4-Benzofuryloxy)-butyramidoxime]
[2]
  mortality at 50 mg/kg: 60%
[3]; [6]
  Average increase of the stereotypies: 5.5

## CCC(Oc1ccc2ccccc2c1)C(N)=NO (stereo not shown) [Compound 37, 2-(2-Naphthyloxy)-butyramidoxime]
[1]; 10 mg/kg oral
  Average inhibition of hypothermia (positive °C): 0.5 °C
[3]; [6]
  Average increase of the stereotypies: 1.8

## CCc1oc2ccccc2c1OCCC(N)=NO [Compound 13, 3-(2-Ethyl-3-benzofuryloxy)-propionamidoxime]
[5]; 25 mg/kg oral
  Central response tremor: Normal: 0
  Central response tremor: Provoked: 0
  Peripheral cholinergic response: Salivat.: 0
  Peripheral cholinergic response: Sweating: 0
  Peripheral cholinergic response: Weeping: 0
[4]; 10 mg/kg oral
  Average decrease of Ptosis: 0.7
[3]; [6]
  Average increase of the stereotypies: 2.4

## CCC(Oc1cccc2ccoc12)C(N)=NO (stereo not shown) [Compound 42, 2-(7-Benzofuryloxy)-butyramidoxime]
[2]
  mortality at 50 mg/kg: 60%

## Cc1oc2c(OC(C)C(N)=NO)cccc2c1C (stereo not shown) [Compound 44, 2-(2,3-Dimethyl-7-benzofuryloxy)-propionamidoxime]
[2]
  mortality at 50 mg/kg: 40%

## Cc1oc2cc(OCC(N)=NO)ccc2c1C [Compound 21, 2-(2,3-Dimethyl-6-benzofuryloxy)-acetamidoxime]
[4]; 10 mg/kg oral
  Average decrease of Ptosis: 0.3
[2]
  mortality at 50 mg/kg: 40%
[3]; [6]
  Average increase of the stereotypies: 4.2

## CC(Oc1ccc2ccoc2c1)C(N)=NO (stereo not shown) [Compound 28, 2-(6-Benzofuryloxy)-propionamidoxime]
[1]; 100 mg/kg oral
  Average inhibition of hypothermia (positive °C): 1.1 °C
[4]; 100 mg/kg oral
  Average decrease of Ptosis: 2.4

## Cc1oc2ccc(OCCC(N)=NO)cc2c1C [Compound 23, 3-(2,3-Dimethyl-5-benzofuryloxy)-propionamidoxime]
[1]; 10 mg/kg oral
  Average inhibition of hypothermia (positive °C): 0.3 °C
[4]; 10 mg/kg oral
  Average decrease of Ptosis: 0.2
